Data on four compounds can be found in patent US8688227B2, “Suction electrode-based medical instrument and system including the medical instrument for therapeutic electrotherapy” (Old Dominion Research Foundation, priority 2007, dated 2014).

The subject of assay [1] is nsPEF-exposed cells. Nature of the assay: Whole-cell patch clamp of membrane conductance/resistance after nsPEF exposure. Format: cell-based. As for the experimental part:
Experiments were performed in GH3 cells (a murine pituitary cell line) and HeLa cells (human epithelial cancer), both obtained from American Type Culture Collection (ATCC, Manassas, Va.) and cultured according to their recommendations. Cells were grown in 75-cm2 flasks at 37° C. with 5% CO2 in air. GH3 cells were cultured in Ham's F12K medium supplemented with 2.5% fetal bovine serum (FBS) and 15% horse serum (Atlanta Biologicals, Norcross, Ga.). HeLa cells were propagated in Eagle minimum essential medium with 10% FBS. The cultures also contained 1% L-glutamine and 1% penicillin/streptomycin (Mediatech Cellgro, Herndon, Va.). For passaging, cells were removed from the substrate with 2-3 ml of 0.25% Trypsin with 2.21 mM EGTA. The cultures were maintained in the logarithmic stage of growth and used at passages 3-15. For a passage immediately preceding the experiments, cells were grown attached to 8- or 10-nun diameter glass cover slips in 35-mm Petri dishes. The cover slips were pretreated with poly-1-lysine (Sigma-Aldrich, St. Louis, Mo.) to improve cell adherence.
These pairs were formulated to explore, in the first approximation, how different ion substitutions would affect Gm and the reversal potential (Erev) after nsPEF exposure. Two pairs (Cs/Na and Cs/Ba-TEA) were also used to explore nsPEF effects on voltage-gated Na^+ and Ca^2+ channels, respectively. In general, solution pairs from the top to the bottom of the Table 1 contain diminishing amounts and variety of monovalent ions, i.e., K and/or Na were replaced with larger cs^+, TEA^+, or NMDG^+. The contents of anions (C1 and HEPES) were kept almost constant and the same in bath and pipette solutions, except for the last pair, where most of the pipette C1 was replaced with HEPES^−. The pH of pipette and bath solutions was adjusted to 7.4 and 7.2, respectively; the ionic contents shown in Table 1 already include any extra amounts of ions added as a base or acid for pH adjustment. The osmolality of all solutions was between 290 and 320 mOsm, as measured with a freezing point microosmometer (Advanced Instruments, Inc., Norwood, Mass., USA).
Patch clamp recording: Cells on a cover slip were transferred into a glass-bottomed chamber (Warner Instruments, Hamden, Conn.) mounted on a motorized stage (Prior Scientific Inc., Rockland, Mass.) of an IX71 FluoView™ 300 confocal laser scanning microscope. […] The data from these experiments were analyzed differently (see below). […]
Once the whole-cell configuration was formed, the membrane resistance and capacitance (Rm and Cm) were measured using the Membrane Test utility of pClamp1 0 software. […] The membrane potential (MP) was measured by switching briefly from voltage to current clamp mode at I=0. […]
(The patch-clamp technique gives a direct electrical read-out from membranes.)

The test system of assay [2] is hippocampal CA1 neurons. Particulars: cited from earlier work.
The subject of assay [3] is liver cells. Particulars: oxidative stress-activated NSCCs; cited from earlier work.
Assay [4] has as its system GH3 or HeLa cells. Nature of the assay: PI uptake, positive control for permeabilization. Format: cell-based. Particulars: 0.03% added into the bath. As for the experimental part:
Moreover, the cells remained impermeable to PI even after extra-long trains of 200 pulses, which caused necrotic changes in cells morphology, and even when the observation period was extended to 30-60 min after the exposure.

Where two headings read alike, the source gives them in different places.

Consider `[Cl][Gd]([Cl])[Cl]` [Gd^3+], for which the “protective effect against nsPEF” value in assay [1] (0.2 mM, first trials) is recorded as “no protection”. Further, in assay [2] (100 AM), the “swelling and other deleterious effects of oxygen-glucose deprivation” value (“swelling and other deleterious effects” for short) is “reduced swelling”. The “number of necrotic cells” value in assay [3] was “sharply decreased”.
Regarding `N.N.N.N.N.N.N.N.N.N.N.N.N.N.[Cl-].[Cl-].[Cl-].[Cl-].[Cl-].[Cl-].[O-2].[O-2].[Ru+3].[Ru+3].[Ru+4]` [ruthenium red], the “membrane conductance increase by nsPEF” value in assay [1] (10 p.M in bath of K/Na pair, prior to 1 or 5 pulses) is reported as “neither enhanced nor inhibited”. Further, in assay [1] (50 and 200 μM in bath of K/Na pair), the “effect on control (sham-exposed) cells” value is on record as “no apparent effect”. Further, in assay [1] (50 and 200 μM in bath of K/Na pair, prior to 1 or 5 pulses), the “condition of nsPEF-exposed cells” value is “worsened the condition”. Further, the “swelling and other deleterious effects” value in assay [2] (1 ilM) is reported as “reduced swelling”.
As to `C[C@@H]1CC[C@@]2(OC1)O[C@H]1[C@@H](O)[C@H]3[C@@H]4CC[C@H]5C[C@@H](O[C@@H]6O[C@H](CO)[C@H](O[C@@H]7O[C@H](CO)[C@@H](O)[C@H](O[C@@H]8OC[C@@H](O)[C@H](O)[C@H]8O)[C@H]7O[C@@H]7O[C@H](CO)[C@H](O)[C@H](O[C@@H]8O[C@H](CO)[C@@H](O)[C@H](O)[C@H]8O)[C@H]7O)[C@H](O)[C@H]6O)[C@H](O)C[C@]5(C)[C@H]4CC[C@]3(C)[C@H]1[C@@H]2C` [digitonin], in assay [4], the “time to bright PI fluorescence after addition” value was 1 to 2 min. In assay [4] (PI in the medium), the “permeabilization, PI fluorescence” value is listed as “bright PI fluorescence”.
For the compound `[Cl][La]([Cl])[Cl]` [La^3+], the “swelling and other deleterious effects” value in assay [2] (100 AM) is given as “reduced swelling”.
